Measurements as given in US9173882B2, “Polycyclic heteroaryl substituted triazoles useful as Axl inhibitors” (Rigel Pharmaceuticals, Inc., priority 2008, dated 2015).

Molecular target: T1, Axl (Homo sapiens, UniProt P30530)
T1 construct: endogenous in cells; host or cells: HeLa cells
T1 sequence (P30530 26-894): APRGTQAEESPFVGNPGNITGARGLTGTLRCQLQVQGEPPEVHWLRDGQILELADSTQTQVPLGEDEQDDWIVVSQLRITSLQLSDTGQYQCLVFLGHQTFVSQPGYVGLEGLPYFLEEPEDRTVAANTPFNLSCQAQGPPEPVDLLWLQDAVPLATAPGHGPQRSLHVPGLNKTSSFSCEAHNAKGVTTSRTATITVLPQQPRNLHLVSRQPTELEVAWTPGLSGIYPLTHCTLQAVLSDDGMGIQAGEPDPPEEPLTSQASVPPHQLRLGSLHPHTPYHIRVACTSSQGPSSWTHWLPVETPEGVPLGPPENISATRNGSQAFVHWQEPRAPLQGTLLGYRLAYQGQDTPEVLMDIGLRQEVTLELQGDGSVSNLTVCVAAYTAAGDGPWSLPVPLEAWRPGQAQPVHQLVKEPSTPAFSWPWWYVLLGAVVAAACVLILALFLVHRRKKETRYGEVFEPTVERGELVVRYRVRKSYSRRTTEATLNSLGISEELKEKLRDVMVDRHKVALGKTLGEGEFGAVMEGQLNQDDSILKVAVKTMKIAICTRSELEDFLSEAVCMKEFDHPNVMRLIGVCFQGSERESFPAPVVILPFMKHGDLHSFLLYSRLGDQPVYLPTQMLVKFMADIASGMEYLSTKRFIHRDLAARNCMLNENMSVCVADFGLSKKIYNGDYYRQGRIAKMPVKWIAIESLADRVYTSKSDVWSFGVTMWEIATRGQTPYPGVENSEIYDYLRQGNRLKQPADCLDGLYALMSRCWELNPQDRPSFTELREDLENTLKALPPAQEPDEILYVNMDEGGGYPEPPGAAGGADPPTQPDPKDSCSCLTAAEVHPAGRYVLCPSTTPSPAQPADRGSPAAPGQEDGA
Experiment: Phospho-Akt in-cell Western assay
Format: cell-based
Conditions: Hela cells, stimulated by Axl-antibody cross-linking, phospho-Akt chemiluminescence
Outline: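 HeLa cells on poly-L-lysine, starved 24 h in 0.5% FCS with 500 ng/mL Axl/Fc, pre-treated with compound 1 hr at 37° C, then stimulated 5 min by cross-linked anti-Axl antibody clusters. Fixed cells probed for phospho-Akt by in-cell Western with HRP chemiluminescence, read within 10 min.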

| Compound | IC50 (Table 1, formula (Ia)) [nM] | IC50 (Table 3, formula (II)) [nM] |
| --- | --- | --- |
| CC=CCN[C@H]1CCc2ccc(Nc3nc(N)n(-c4cc5c(nn4)-c4ccccc4CCC5)n3)cc2CC1 [Compound 42, 1-(6,7-dihydro-5H-benzo[6,7]cyclohepta[1,2-c]pyridazin-3-yl)-N^3-((7S)-7-(but-2-enylamino)-6,7,8,9-tetrahydro-5H-benzo[7]annulene-2-yl)-1H-1,2,4-triazole-3,5-diamine] | < 1000 | – |
| CC=CCN(CCCC)[C@H]1CCc2ccc(Nc3nc(N)n(-c4cc5c(nn4)-c4ccccc4CCC5)n3)cc2CC1 [Compound 43, 1-(6,7-dihydro-5H-benzo[6,7]cyclohepta[1,2-c]pyridazin-3-yl)-N^3-((7S)-7-(butyl(but-2-enyl)amino)-6,7,8,9-tetrahydro-5H-benzo[7]annulene-2-yl)-1H-1,2,4-triazole-3,5-diamine] | < 1000 | – |
| CC(C)(C)OC(=O)N[C@H]1CCc2ccc(Nc3nc(N)n(-c4cc5c(nn4)-c4cccnc4CCC5)n3)cc2CC1 [Compound 44] | > 20000 | – |
| Nc1nc(Nc2ccc(N3CCC(N4CCCC4)CC3)c(F)c2)nn1-c1cc2c(nn1)-c1cccnc1CCC2 [Compound 45, 1-(6,7-dihydro-5H-pyrido[2′,3′:6,7]cyclohepta[1,2-c]pyridazin-3-yl)-N^3-(3-fluoro-4-(4-(pyrrolidin-1-yl)piperidin-1-yl)phenyl)-1H-1,2,4-triazole-3,5-diamine] | – | > 20000 |
| Nc1nc(Nc2ccc3c(c2)CC[C@@H](N)CC3)nn1-c1cc2c(nn1)-c1cccnc1CCC2 [Compound 46, 1-(6,7-dihydro-5H-pyrido[2′,3′:6,7]cyclohepta[1,2-c]pyridazin-3-yl)-N^3-((7S)-7-amino-6,7,8,9-tetrahydro-5H-benzo[7]annulene-2-yl)-1H-1,2,4-triazole-3,5-diamine] | < 1000 | – |
| CN(C)[C@H]1CCc2ccc(Nc3nc(N)n(-c4cc5c(nn4)-c4cccnc4CCC5)n3)cc2CC1 [Compound 47, 1-(6,7-dihydro-5H-pyrido[2′,3′:6,7]cyclohepta[1,2-c]pyridazin-3-yl)-N^3-((7S)-7-(dimethylamino)-6,7,8,9-tetrahydro-5H-benzo[7]annulene-2-yl)-1H-1,2,4-triazole-3,5-diamine] | 1000 to 10000 | – |
| CCN(CC)[C@H]1CCc2ccc(Nc3nc(N)n(-c4cc5c(nn4)-c4cccnc4CCC5)n3)cc2CC1 [Compound 48, 1-(6,7-dihydro-5H-pyrido[2′,3′:6,7]cyclohepta[1,2-c]pyridazin-3-yl)-N^3-((7S)-7-(diethylamino)-6,7,8,9-tetrahydro-5H-benzo[7]annulene-2-yl)-1H-1,2,4-triazole-3,5-diamine] | < 1000 | – |
| CCCN(CCC)[C@H]1CCc2ccc(Nc3nc(N)n(-c4cc5c(nn4)-c4cccnc4CCC5)n3)cc2CC1 [Compound 49, 1-(6,7-dihydro-5H-pyrido[2′,3′:6,7]cyclohepta[1,2-c]pyridazin-3-yl)-N^3-((7S)-7-(dipropylamino)-6,7,8,9-tetrahydro-5H-benzo[7]annulene-2-yl)-1H-1,2,4-triazole-3,5-diamine] | < 1000 | – |
| Nc1nc(Nc2ccc3c(c2)CC[C@@H](N(CC2CC2)CC2CC2)CC3)nn1-c1cc2c(nn1)-c1cccnc1CCC2 [Compound 50, 1-(6,7-dihydro-5H-pyrido[2′,3′:6,7]cyclohepta[1,2-c]pyridazin-3-yl)-N^3-((7S)-7-(di(cyclopropylmethyl)amino)-6,7,8,9-tetrahydro-5H-benzo[7]annulene-2-yl)-1H-1,2,4-triazole-3,5-diamine] | < 1000 | – |
| CC(C)CCN(CCC(C)C)[C@H]1CCc2ccc(Nc3nc(N)n(-c4cc5c(nn4)-c4cccnc4CCC5)n3)cc2CC1 [Compound 51, 1-(6,7-dihydro-5H-pyrido[2′,3′:6,7]cyclohepta[1,2-c]pyridazin-3-yl)-N^3-((7S)-7-(di(3-methylbutyl)amino)-6,7,8,9-tetrahydro-5H-benzo[7]annulene-2-yl)-1H-1,2,4-triazole-3,5-diamine] | 1000 to 10000 | – |
| Nc1nc(Nc2ccc3c(c2)CC[C@@H](NC2CCC2)CC3)nn1-c1cc2c(nn1)-c1cccnc1CCC2 [Compound 52, 1-(6,7-dihydro-5H-pyrido[2′,3′:6,7]cyclohepta[1,2-c]pyridazin-3-yl)-N^3-((7S)-7-(cyclobutylamino)-6,7,8,9-tetrahydro-5H-benzo[7]annulene-2-yl)-1H-1,2,4-triazole-3,5-diamine] | < 1000 | – |
| Nc1nc(Nc2ccc3c(c2)CC[C@@H](NC2CCCCC2)CC3)nn1-c1cc2c(nn1)-c1cccnc1CCC2 [Compound 53, 1-(6,7-dihydro-5H-pyrido[2′,3′:6,7]cyclohepta[1,2-c]pyridazin-3-yl)-N^3-((7S)-7-(cyclohexylamino)-6,7,8,9-tetrahydro-5H-benzo[7]annulene-2-yl)-1H-1,2,4-triazole-3,5-diamine] | < 1000 | – |
| CC(C)N[C@H]1CCc2ccc(Nc3nc(N)n(-c4cc5c(nn4)-c4cccnc4CCC5)n3)cc2CC1 [Compound 54, 1-(6,7-dihydro-5H-pyrido[2′,3′:6,7]cyclohepta[1,2-c]pyridazin-3-yl)-N^3-((7S)-7-((methylethyl)amino)-6,7,8,9-tetrahydro-5H-benzo[7]annulene-2-yl)-1H-1,2,4-triazole-3,5-diamine] | < 1000 | – |
